Reference: article PMC7351026, “Serum Half-Lives for Short- and Long-Chain Perfluoroalkyl Acids after Ceasing Exposure from Drinking Water Contaminated by Firefighting Foam” (Environmental Health Perspectives, 2020)
Several values for one entry are separate records, joined by “and”; a condition that tells them apart may be missing. Equal entries are not always repeated.

Experiments:
[1] = PFAS levels in serum samples of airport employees (LC/MS/MS)
Outline: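 LC/MS/MS quantification (BEH C18, 5 mM ammonium acetate water:methanol to methanol gradient) after protein precipitation of 25 μL serum with isotopically labeled internal standards, FBS-matrix calibration. Samples stored at −80°C, collected at monthly intervals from September 2018 and run together in a single batch.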

[2] = Individual serum elimination rate and half-life (linear regression per employee); settings: individual estimate; for half-life: human, serum, oral, HL (half-life)
Outline: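 One-compartment, first-order model: for each employee and PFAS, the slope β of log serum concentration versus elapsed days (from clean water supply, over five samplings) gave k = −β and half-life = ln2/k. A positive slope left the half-life undetermined.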

[3] = 1st sampling (September 2018), count 17
[4] = 2nd sampling (October 2018), count 17
[5] = 3rd sampling (November, 2018), count 17
[6] = 4th sampling (December 2018), count 16
[7] = 5th sampling (January 2019), count 16
[8] = first serum samples, all 26 airport employees
[9] = median of first serum samples, all 26 airport employees

## O=S(=O)(O)C(F)(F)C(F)(F)C(F)(F)C(F)(F)C(F)(F)C(F)(F)F [PFHxS, perfluorohexane sulfonic acid]
[1]; [3]
  Serum PFAS level, 25 percentile: 63
  Serum PFAS level, 75 percentile: 155
  Serum PFAS level, Max: 402
  Serum PFAS level, Median: 133
  Serum PFAS level, Min: 21
[1]; [4]
  Serum PFAS level, 25 percentile: 57
  Serum PFAS level, 75 percentile: 144
  Serum PFAS level, Max: 363
  Serum PFAS level, Median: 122
  Serum PFAS level, Min: 18
[1]; [5]
  Serum PFAS level, 25 percentile: 57
  Serum PFAS level, 75 percentile: 150
  Serum PFAS level, Max: 392
  Serum PFAS level, Median: 119
  Serum PFAS level, Min: 20
[1]; [6]
  Serum PFAS level, 25 percentile: 50
  Serum PFAS level, 75 percentile: 146
  Serum PFAS level, Max: 381
  Serum PFAS level, Median: 109
  Serum PFAS level, Min: 17
[1]; [7]
  Serum PFAS level, 25 percentile: 64
  Serum PFAS level, 75 percentile: 153
  Serum PFAS level, Max: 399
  Serum PFAS level, Median: 117
  Serum PFAS level, Min: 42
[1]; all 26 airport employees
  Serum level in the first samples, median (range): 76 (17–402) ng/mL
[1]; employees participated in first blood sampling and repeated blood and urine sampling, N=17
  PFAS in first serum sample, median (range): 133 (21–402) ng/mL
[1]; employees participated in first blood sampling only, N=9, 11-14 d after end of exposure
  PFAS in first serum sample, median (range): 60 (17–85) ng/mL
[1]; females (N=7)
  Initial serum PFAS level, max: 183 ng/mL
  Initial serum PFAS level, median: 74 ng/mL
  Initial serum PFAS level, min: 21 ng/mL
[1]; [8]
  Relative composition of PFAS in serum, molar concentration basis: 70.4% and 70%
  Relative composition of PFAS in serum, weight basis: 68.9%
[1]; males (N=19)
  Initial serum PFAS level, Max: 402 ng/mL
  Initial serum PFAS level, Min: 17 ng/mL
  Initial serum PFAS level, median: 78 ng/mL
[1]; [9]
  Serum concentration, molar basis: 0.19
  Serum concentration, weight basis: 76
[1]; second to fifth samplings, 17 airport employees
  Serum level, median (range): 118 (17–399) ng/mL
[2]; subject 1, 5 samples
  half-life: 1280 days
  Elimination rate: 0.2 yearly
[2]; subject 2, 5 samples
  half-life: 730 days
  Elimination rate: 0.3 yearly
[2]; subject 3, 5 samples
  half-life: 548 days
  Elimination rate: 0.5 yearly
[2]; subject 4, 5 samples
  half-life: 3510 days
  Elimination rate: 0.1 yearly
[2]; subject 5, 5 samples
  half-life: 1720 days
  Elimination rate: 0.1 yearly
[2]; subject 7, 5 samples
  half-life: 840 days
  Elimination rate: 0.3 yearly
[2]; subject 10, 5 samples
  half-life: 694 days
  Elimination rate: 0.4 yearly
[2]; subject 11, 5 samples
  half-life: 1100 days
  Elimination rate: 0.2 yearly
[2]; subject 12, 5 samples
  half-life: 584 days
  Elimination rate: 0.4 yearly
[2]; subject 13, 5 samples
  half-life: 511 days
  Elimination rate: 0.5 yearly
[2]; subject 14, 4 samples
  half-life: 438 days
  Elimination rate: 0.6 yearly
[2]; subject 15, 5 samples
  half-life: 804 days
  Elimination rate: 0.3 yearly
[2]; subject 16, 5 samples
  half-life: 6940 days
  Elimination rate: 0.04 yearly
[2]; subject 17, 5 samples
  half-life: 584 days
  Elimination rate: 0.4 yearly
[2]; subject 6, 4 samples
  Elimination rate: −0.1 yearly
[2]; subject 8, 5 samples
  Elimination rate: −0.01 yearly
[2]; subject 9, 5 samples
  Elimination rate: −0.04 yearly
